Test results taken from patent US4401812A, “Anthracycline antibiotics” (Hoffmann-La Roche Inc., priority 1980, dated 1983).
≈ marks a conversion by molar mass, not a printed value. Where two headings read alike, the source gives them in different places.

Assays:
[1] = system: Staphylococcus aureus 209P IAM-1011; experiment: in vitro MIC, agar streak method; type: cell-based; conditions: Heart infusion agar
[2] = system: Bacillus subtilis IAM-1027; experiment: in vitro MIC, agar streak method; type: cell-based
Text: (§1) | ^(1) Heart infusion agar

[3] = system: Escherichia coli K-12 IAM-1264; experiment: in vitro MIC, agar streak method; type: cell-based
Text: as §1

[4] = system: Escherichia coli NIHJ IFO-12734; experiment: in vitro MIC, agar streak method; type: cell-based
Text: as §1

[5] = system: Micrococcus flavus ATCC-10240; experiment: in vitro MIC, agar streak method; type: cell-based
Text: as §1

[6] = system: Mycobacterium smegmatis IFO-13167; experiment: in vitro MIC, agar streak method; type: cell-based; conditions: Mycolicibacterium smegmatis, IFO13167; Mycobacterium smegmatis IFO-13167; Heart infusion agar; read-out: MIC
Text: as §1

[7] = system: Pseudomonas aeruginosa IFO-12689; experiment: in vitro MIC, agar streak method; type: cell-based; conditions: IFO12689, Heart infusion agar
Text: as §1

[8] = system: Staphylococcus aureus 209P Stf; experiment: in vitro MIC, agar streak method; type: cell-based; conditions: Heart infusion agar
Text: as §1

Sarcina lutea IAM1009 = experiment: in vitro MIC, agar streak method; type: cell-based; conditions: Heart infusion agar
[9] = system: Candida albicans ATCC-10231; experiment: in vitro MIC, agar streak method; type: cell-based
Text: (§2) | ^(2) Sabouraud dextrose agar

[10] = system: Candida tropicalis ATCC-13803; experiment: in vitro MIC, agar streak method; type: cell-based
Text: as §2

in vivo = conditions: mouse, ip, mice, single i.p. injection, judged 72 hours after, read-out: acute intraperitoneal LD50
Description: The acute intraperitoneal LD50 in mice judged 72 hours after a single injection of the antibiotics is about 90 mg/kg for auramycin C, auramycin D, sulfurmycin C and sulfurmycin D, 40~80 mg/kg for auramycin G and sulfurmycin G and 20~40 mg/kg for auramycin E and sulfurmycin E.

P388 leukaemia = experiment: Antitumor effect against P388 leukaemia in CDF1 mice; type: in vivo; conditions: Mus musculus, read-out: Mean survival (T/C, %); for response vs control in vivo at 1.88 mg/kg: 1.88 mg/kg/day i.p.; for response vs control in vivo at 3.75 mg/kg: 3.75 mg/kg/day i.p.; for response vs control in vivo at 7.5 mg/kg: 7.5 mg/kg/day i.p.; for response vs control in vivo at 15 mg/kg: 15.0 mg/kg/day i.p.
Description: The anthracycline glycosides provided by the present invention were tested against P388 leukaemia in mice. When CDF1 mice are inoculated with 1×10^6 cells of P388 intraperitoneally and each of the antibiotics is administered intraperitoneally on days 1, 5 and 9, the survival time of the treated mice is prolonged as shown in Table 5 hereinafter.

Bacillus cereus Rol79B = experiment: in vitro MIC, agar streak method; type: cell-based; conditions: Heart infusion agar
Text: as §1

[11] = system: Staphylococcus epidermidis IFO-12993; experiment: in vitro MIC, agar streak method; type: cell-based; conditions: Staphylococcus epidermidis IFO-12993, Heart infusion agar
Text: as §1

[12] = IAM1027, Bacillus subtilis IAM-1027, Heart infusion agar, read-out: MIC
[13] = IAM1264, Escherichia coli K-12 IAM-1264, Heart infusion agar, read-out: MIC
[14] = IFO12734, Escherichia coli NIHJ IFO-12734, Heart infusion agar, read-out: MIC
[15] = Micrococcus luteus, IAM1009, Sarcina lutea IAM-1009, read-out: MIC
[16] = ATCC10231, Candida albicans ATCC-10231, Sabouraud dextrose agar, read-out: MIC
[17] = ATCC13803, Candida tropicalis ATCC-13803, Sabouraud dextrose agar, read-out: MIC
[18] = ip, days 1, 5 and 9, 1×10^6 P388 cells i.p., CDF1 mice
[19] = Staphylococcus aureus, read-out: MIC
[20] = Micrococcus flavus, ATCC10240, Micrococcus flavus ATCC-10240, Heart infusion agar, read-out: MIC

Compound	MIC ([1]; read-out: MIC) [µg/mL]	MIC [2, 12] [µg/mL]	MIC [3, 13] [µg/mL]	MIC [4, 14] [µg/mL]	MIC [6] [µg/mL]	MIC [7] [µg/mL]	MIC [8] [µg/mL]	MIC (Sarcina lutea IAM1009; [15]) [µg/mL]	MIC [9, 16] [µg/mL]	MIC [10, 17] [µg/mL]	LD50 at 72 h (in vivo) [mg/kg]	response vs control in vivo at 1.88 mg/kg (P388 leukaemia; [18]) [%]	response vs control in vivo at 3.75 mg/kg (P388 leukaemia; [18]) [%]	response vs control in vivo at 7.5 mg/kg (P388 leukaemia; [18]) [%]	response vs control in vivo at 15 mg/kg (P388 leukaemia; [18]) [%]	MIC [1, 19] [µg/mL]	MIC [5, 20] [µg/mL]	MIC (Bacillus cereus Rol79B; read-out: MIC) [µg/mL]	MIC [11] [µg/mL]	further results
COC(=O)C1c2cc3c(c(O)c2C(OC2CC(N(C)C)C(OC4CC(O)C(O)C(C)O4)C(C)O2)CC1(O)CC(C)=O)C(=O)c1c(O)cccc1C3=O (stereo not shown) [Sulfurmycin C]	6.25 (≈ 8.59 µM)	12.5 (≈ 17.2 µM)	> 50	> 50	3.13 (≈ 4.3 µM)	> 50	6.25 (≈ 8.59 µM)	6.25 (≈ 8.59 µM)	> 50	> 50	~90	131	141	138	141					MIC ([5]; ATCC10240, Micrococcus flavus ATCC-10240, Heart infusion agar, read-out: MIC): 6.25 µg/mL (≈ 8.59 µM)
COC(=O)C1c2cc3c(c(O)c2C(OC2CC(N(C)C)C(O)C(C)O2)CC1(O)CC(C)=O)C(=O)c1c(O)cccc1C3=O (stereo not shown) [Sulfurmycin D]		12.5 (≈ 20.9 µM)	> 50	> 50	6.25 (≈ 10.5 µM)	> 50	25 (≈ 41.8 µM)	25 (≈ 41.8 µM)	> 50	> 50	~90	106	135	128	152	25 (≈ 41.8 µM)	25 (≈ 41.8 µM)			
COC(=O)C1c2cc3c(c(O)c2C(OC2CC(N(C)C)C(OC4CC(O)C(OC5CCC(O)C(C)O5)C(C)O4)C(C)O2)CC1(O)CC(C)=O)C(=O)c1c(O)cccc1C3=O (stereo not shown) [Sulfurmycin E]		3.12 (≈ 3.71 µM)	> 50	> 50				3.12 (≈ 3.71 µM)	> 50	> 50	20 to 40					3.12 (≈ 3.71 µM)	3.12 (≈ 3.71 µM)	0.39 (≈ 0.463 µM)	1.56 (≈ 1.85 µM)	response vs control in vivo at 1.5 mg/kg (P388 leukaemia; ip, 1.5 mg/kg/day i.p., days 1, 5 and 9, 1×10^6 P388 cells i.p., CDF1 mice): 133%; response vs control in vivo at 3 mg/kg (P388 leukaemia; ip, 3.0 mg/kg/day i.p., days 1, 5 and 9, 1×10^6 P388 cells i.p., CDF1 mice): 140%; response vs control in vivo at 6 mg/kg (P388 leukaemia; ip, 6.0 mg/kg/day i.p., days 1, 5 and 9, 1×10^6 P388 cells i.p., CDF1 mice): 150%; response vs control in vivo at 12 mg/kg (P388 leukaemia; ip, 12.0 mg/kg/day i.p., days 1, 5 and 9, 1×10^6 P388 cells i.p., CDF1 mice): 165%
COC(=O)C1c2cc3c(c(O)c2C(OC2CC(N(C)C)C(OC4CC(O)C(OC5CCC(O)C(C)O5)C(C)O4)C(C)O2)CC1(O)CC(C)=O)C(=O)c1c(O)cccc1C3=O (stereo not shown) [Sulfurmycin F]																			12.5 (≈ 14.8 µM)	MIC [1]: 3.12 µg/mL (≈ 3.71 µM); MIC (Bacillus cereus Rol79B): 0.39 µg/mL (≈ 0.463 µM); MIC ([2]; Bacillus subtilis IAM-1027, Heart infusion agar): 3.12 µg/mL (≈ 3.71 µM); MIC ([3]; Escherichia coli K-12 IAM-1264, Heart infusion agar): > 50 µg/mL; MIC ([4]; Escherichia coli NIHJ IFO-12734, Heart infusion agar): > 50 µg/mL; MIC ([5]; Micrococcus flavus ATCC-10240, Heart infusion agar): 1.56 µg/mL (≈ 1.85 µM); MIC (Sarcina lutea IAM1009; Sarcina lutea IAM-1009): 1.56 µg/mL (≈ 1.85 µM); MIC ([9]; Candida albicans ATCC-10231, Sabouraud dextrose agar): > 50 µg/mL; MIC ([10]; Candida tropicalis ATCC-13803, Sabouraud dextrose agar): > 50 µg/mL
COC(=O)C1c2cc3c(c(O)c2C(OC2CC(N(C)C)C(OC4CCC(OC5CCC(O)C(C)O5)C(C)O4)C(C)O2)CC1(O)CC(C)=O)C(=O)c1c(O)cccc1C3=O (stereo not shown) [Sulfurmycin G]	6.25 (≈ 7.57 µM)							12.5 (≈ 15.1 µM)			40 to 80							0.39 (≈ 0.472 µM)		MIC ([2]; Bacillus subtilis, IAM1027): 6.25 µg/mL (≈ 7.57 µM); MIC ([3]; Escherichia coli, IAM1264): > 50 µg/mL; MIC ([4]; Escherichia coli, IFO12734): > 50 µg/mL; MIC ([5]; Micrococcus flavus, ATCC10240): 12.5 µg/mL (≈ 15.1 µM); MIC ([11]; IFO12993, read-out: MIC): 12.5 µg/mL (≈ 15.1 µM); MIC ([9]; Candida albicans, ATCC10231): > 50 µg/mL; MIC ([10]; Candida tropicalis, ATCC13803): > 50 µg/mL; response vs control in vivo at 1.5 mg/kg (P388 leukaemia; P388, ip): 104%; response vs control in vivo at 3 mg/kg (P388 leukaemia; P388, ip): 112%; response vs control in vivo at 6 mg/kg (P388 leukaemia; P388, ip): 113%; response vs control in vivo at 12 mg/kg (P388 leukaemia; P388, ip): 123%; response vs control in vivo at 24 mg/kg (P388 leukaemia; P388, ip): 144%
